Measured values taken from patent publication US9662327B2 (AGIOS PHARMACEUTICALS, INC, priority 2011, dated 2017).

Columns and labels:
IDH1 R132H = IDH1 R132H (Homo sapiens (Human), UniProt O75874, R132H); test: Assays for IDH1 R132H Inhibitors (NADPH/aKG, resazurin detection); assay type: biochemical; settings: IDH1 R132H enzyme, Table 3; read-out: R132H IC50
Method in brief: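 Mutant enzyme in 150 mM NaCl, 10 mM MgCl2, 20 mM Tris pH 7.5, 0.03% BSA; compound in DMSO added to substrate mix of 8 uM NADPH and 2 mM aKG. Reaction ran 50 min at room temperature, then resazurin detection mix (30 μM) added for 5 min at room temperature.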

HT1080 cells = test: Cellular assay for IDH1m inhibitors: inhibition of 2-HG production in HT1080 cells (LC-MS); assay type: cell-based; settings: Homo sapiens, HT-1080, 48 hours
Experimental: (§1) Cells (e.g., HT1080 or U87MG) are grown in T125 flasks in DMEM containing 10% FBS, 1× penicillin/streptomycin and 500 ug/mL G418. They are harvested by trypsin and seeded into 96 well white bottom plates at a density of 5000 cell/well in 100 ul/well in DMEM with 10% FBS. No cells are plates in columns 1 and 12. Cells are incubated overnight at 37 C in 5% CO2. The next day compounds are made up at 2× concentration and 100 ul are added to each cell well. The final concentration of DMSO is 0.2% and the DMSO control wells are plated in row G. The plates are then placed in the incubator for 48 hours. At 48 hours, 100 ul of media is removed from each well and analyzed by LC-MS for 2-HG concentrations. The cell plate is placed back in the incubator for another 24 hours. At 72 hours post compound addition, 10 mL/plate of Promega Cell Titer Glo reagent is thawed and mixed. The cell plate is removed from the incubator and allowed to equilibrate to room temperature. Then 100 ul of reagent is added to each well of media. The cell plate is then placed on an orbital shaker for 10 minutes and then allowed to sit at room temperature for 20 minutes. The plate is then read for luminescence with an integration time of 500 ms.

U87R132H (U87MG) cells = test: Cellular assay for IDH1m inhibitors: inhibition of 2-HG production in U87MG (U87R132H) cells (LC-MS); assay type: cell-based; settings: Homo sapiens, U-87 MG, 48 hours
Experimental: as §1

IDH1 R132H, sequence (O75874 whole entry R132H): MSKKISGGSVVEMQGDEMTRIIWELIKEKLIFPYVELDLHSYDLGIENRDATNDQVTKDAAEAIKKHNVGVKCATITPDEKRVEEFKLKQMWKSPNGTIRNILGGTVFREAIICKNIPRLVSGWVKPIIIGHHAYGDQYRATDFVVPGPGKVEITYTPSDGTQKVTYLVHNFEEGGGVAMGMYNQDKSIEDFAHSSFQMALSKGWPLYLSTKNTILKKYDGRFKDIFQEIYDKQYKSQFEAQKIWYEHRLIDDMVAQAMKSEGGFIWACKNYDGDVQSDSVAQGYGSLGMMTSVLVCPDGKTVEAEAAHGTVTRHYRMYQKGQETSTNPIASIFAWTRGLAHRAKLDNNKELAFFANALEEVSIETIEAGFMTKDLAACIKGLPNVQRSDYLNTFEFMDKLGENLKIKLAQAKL

SMILES | IC50 (IDH1 R132H) | IC50 (HT1080 cells) | IC50 (U87R132H (U87MG) cells)
C=CC(=O)N1CCc2c(C#N)c(N3CCN(C(=O)CCO)[C@H](C4CC4)C3)nc(C3CC3)c2C1 [Compound 498, (R)-7-acryloyl-1-cyclopropyl-3-(3-cyclopropyl-4-(3-hydroxypropanoyl)piperazin-1-yl)-5,6,7,8-tetrahydro-2,7-naphthyridine-4-carbonitrile] | < 500 nM | < 500 nM | < 500 nM
[2H]C([2H])([2H])C([2H])(C([2H])([2H])[2H])[C@@]1([2H])N(C(=O)CC(F)(F)F)C([2H])([2H])C([2H])([2H])N(c2nc(C3CC3)c3c(c2C#N)CC(C)(C)OC3)C1([2H])[2H] [Compound 452, (R)-8-cyclopropyl-6-(2,2,3,3,5,6,6-heptadeuterio-5-(perdeuteriopropan-2-yl)-4-(3,3,3-trifluoropropanoyl)piperazin-1-yl)-3,3-dimethyl-3,4-dihydro-1H-pyrano[3,4-c]pyridine-5-carbonitrile] | < 500 nM | 1000 to 10000 nM | 500 to 1000 nM
CNC(=O)CC(=O)N1CCN(c2nc(C3CC3)c3c(c2C#N)CC(C)(C)OC3)C[C@H]1C(C)C [Compound 422, (R)-3-(4-(5-cyano-8-cyclopropyl-3,3-dimethyl-3,4-dihydro-1H-pyrano[3,4-c]pyridin-6-yl)-2-isopropylpiperazin-1-yl)-N-methyl-3-oxopropanamide] | 500 to 1000 nM | 1000 to 10000 nM | 1000 to 10000 nM
COC(=O)CC(=O)N1CCN(c2nc(C3CC3)c3c(c2C#N)CC(C)(C)OC3)C[C@H]1C1CC1 [Compound 440, (R)-methyl 3-(4-(5-cyano-8-cyclopropyl-3,3-dimethyl-3,4-dihydro-1H-pyrano[3,4-c]pyridin-6-yl)-2-cyclopropylpiperazin-1-yl)-3-oxopropanoate] | < 500 nM | < 500 nM | < 500 nM
CS(=O)(=O)N1CCc2c(C#N)c(N3CCN(C(=O)C4CC4)[C@H](C4CC4)C3)nc(C3CC3)c2C1 [Compound 481, (R)-3-(4-(cyclopropanecarbonyl)-3-cyclopropylpiperazin-1-yl)-1-cyclopropyl-7-(methylsulfonyl)-5,6,7,8-tetrahydro-2,7-naphthyridine-4-carbonitrile] | < 500 nM | 1000 to 10000 nM | 500 to 1000 nM
COC(=O)NCCC(=O)N1CCN(c2nc(C3CC3)c3c(c2C#N)CC(C)(C)OC3)C[C@H]1C(C)C [Compound 431, (R)-methyl 3-(4-(5-cyano-8-cyclopropyl-3,3-dimethyl-3,4-dihydro-1H-pyrano[3,4-c]pyridin-6-yl)-2-isopropylpiperazin-1-yl)-3-oxopropylcarbamate] | 500 to 1000 nM | 1000 to 10000 nM | 1000 to 10000 nM
[2H]C1([2H])CN(c2nc(C3CC3)c3c(c2C#N)CC(C)(C)OC3)C([2H])([2H])[C@@]([2H])(C([2H])(C([2H])([2H])[2H])C([2H])([2H])[2H])N1C(=O)CCOC [Compound 438, (R)-8-cyclopropyl-3,3-dimethyl-6-(2,2,3,5,5-pentadeuterio-4-(3-methoxypropanoyl)-3-(perdeuteriopropan-2-yl)piperazin-1-yl)-3,4-dihydro-1H-pyrano[3,4-c]pyridine-5-carbonitrile] | < 500 nM | < 500 nM | < 500 nM
CC1(C)Cc2c(C#N)c(N3CCN(C(=O)CCO)[C@H](C4CC4)C3)nc(C3CC3)c2CO1 [Compound 460, (R)-8-cyclopropyl-6-(3-cyclopropyl-4-(3-hydroxypropanoyl)piperazin-1-yl)-3,3-dimethyl-3,4-dihydro-1H-pyrano[3,4-c]pyridine-5-carbonitrile] | < 500 nM | < 500 nM | < 500 nM
CC(C)[C@@H]1CN(c2nc(C3CC3)c3c(c2C#N)CC(C)(C)OC3)CCN1C(=O)CCO [Compound 429, (R)-8-cyclopropyl-6-(4-(3-hydroxypropanoyl)-3-isopropylpiperazin-1-yl)-3,3-dimethyl-3,4-dihydro-1H-pyrano[3,4-c]pyridine-5-carbonitrile] | < 500 nM | < 500 nM | < 500 nM
CC1(C)Cc2c(C#N)c(N3CCN(C(=O)CC(F)(F)F)C(C4CC4)C3)nc(C3CC3)c2CO1 (stereo not drawn) [Compound 430, 8-cyclopropyl-6-(3-cyclopropyl-4-(3,3,3-trifluoropropanoyl)piperazin-1-yl)-3,3-dimethyl-3,4-dihydro-1H-pyrano[3,4-c]pyridine-5-carbonitrile] | < 500 nM | 500 to 1000 nM | < 500 nM
CC(=O)CCC(=O)N1CCN(c2nc(C3CC3)c3c(c2C#N)CC(C)(C)OC3)C[C@H]1C(C)C [Compound 428, (R)-8-cyclopropyl-6-(3-isopropyl-4-(4-oxopentanoyl)piperazin-1-yl)-3,3-dimethyl-3,4-dihydro-1H-pyrano[3,4-c]pyridine-5-carbonitrile] | < 500 nM | 1000 to 10000 nM | < 500 nM
CC(C)[C@@H]1CN(c2nc(C3CC3)c3c(c2C#N)CC(C)(C)OC3)CCN1C(=O)Cc1nnco1 [Compound 455, (R)-6-(4-(2-(1,3,4-oxadiazol-2-yl)acetyl)-3-isopropylpiperazin-1-yl)-8-cyclopropyl-3,3-dimethyl-3,4-dihydro-1H-pyrano[3,4-c]pyridine-5-carbonitrile] | 500 to 1000 nM | < 500 nM | < 500 nM
CC1(C)Cc2c(C#N)c(N3CCN(C(=O)C4CC4)C(C(F)F)C3)nc(C3CC3)c2CO1 (stereo not drawn) [Compound 463, 6-(4-(cyclopropanecarbonyl)-3-(difluoromethyl)piperazin-1-yl)-8-cyclopropyl-3,3-dimethyl-3,4-dihydro-1H-pyrano[3,4-c]pyridine-5-carbonitrile] | 500 to 1000 nM | 1000 to 10000 nM | 1000 to 10000 nM
CC(C)[C@@H]1CN(c2nc(C3CC3)c3c(c2C#N)CC(C)(C)OC3)CCN1C(=O)c1ccon1 [Compound 427, (R)-8-cyclopropyl-6-(3-isopropyl-4-(isoxazole-3-carbonyl)piperazin-1-yl)-3,3-dimethyl-3,4-dihydro-1H-pyrano[3,4-c]pyridine-5-carbonitrile] | 500 to 1000 nM | 1000 to 10000 nM | 1000 to 10000 nM
CC(C)[C@@H]1CN(c2nc(C3CC3)c3c(c2C#N)CC(C)(C)OC3)CCN1C(=O)CC(F)(F)F [Compound 423, (R)-8-cyclopropyl-6-(3-isopropyl-4-(3,3,3-trifluoropropanoyl)piperazin-1-yl)-3,3-dimethyl-3,4-dihydro-1H-pyrano[3,4-c]pyridine-5-carbonitrile] | < 500 nM | 1000 to 10000 nM | 500 to 1000 nM
C=CC(=O)N1CCc2c(C3CC3)nc(N3CCN(C(=O)CCOC)[C@H](C4CC4)C3)c(C#N)c2C1 [Compound 483, (R)-6-acryloyl-1-cyclopropyl-3-(3-cyclopropyl-4-(3-methoxypropanoyl)piperazin-1-yl)-5,6,7,8-tetrahydro-2,6-naphthyridine-4-carbonitrile] | < 500 nM | < 500 nM | < 500 nM
C=CS(=O)(=O)N1CCc2c(C#N)c(N3CCN(C(=O)C4CC4)[C@H](C4CC4)C3)nc(C3CC3)c2C1 [Compound 493, (R)-3-(4-(cyclopropanecarbonyl)-3-cyclopropylpiperazin-1-yl)-1-cyclopropyl-7-(vinylsulfonyl)-5,6,7,8-tetrahydro-2,7-naphthyridine-4-carbonitrile] | < 500 nM | < 500 nM | < 500 nM
CC1(C)Cc2c(C#N)c(N3CCN(C(=O)CC(F)(F)F)[C@H](C4CC4)C3)nc(C3CC3)c2CO1 [Compound 435, (R)-8-cyclopropyl-6-(3-cyclopropyl-4-(3,3,3-trifluoropropanoyl)piperazin-1-yl)-3,3-dimethyl-3,4-dihydro-1H-pyrano[3,4-c]pyridine-5-carbonitrile] | < 500 nM | < 500 nM | < 500 nM
CC(O)CC(=O)N1CCN(c2nc(C3CC3)c3c(c2C#N)CC(C)(C)OC3)C[C@H]1C(C)C (stereo partly drawn) [Compound 433, 8-cyclopropyl-6-((3R)-4-(3-hydroxybutanoyl)-3-isopropylpiperazin-1-yl)-3,3-dimethyl-3,4-dihydro-1H-pyrano[3,4-c]pyridine-5-carbonitrile] | < 500 nM | 500 to 1000 nM | 500 to 1000 nM
CC(C)[C@@H]1CN(c2nc(C3CC3)c3c(c2C#N)CC(C)(C)OC3)CCN1C(=O)CCCO [Compound 443, (R)-8-cyclopropyl-6-(4-(4-hydroxybutanoyl)-3-isopropylpiperazin-1-yl)-3,3-dimethyl-3,4-dihydro-1H-pyrano[3,4-c]pyridine-5-carbonitrile] | < 500 nM | 1000 to 10000 nM | 1000 to 10000 nM
[2H]C([2H])([2H])C([2H])(C([2H])([2H])[2H])[C@@]1([2H])N(C(=O)CCC(=O)OC)C([2H])([2H])C([2H])([2H])N(c2nc(C3CC3)c3c(c2C#N)CC(C)(C)OC3)C1([2H])[2H] [Compound 450] | < 500 nM | < 500 nM | < 500 nM
